Test results from paper PMC8659337, “Motor domain-mediated autoinhibition dictates axonal transport by the kinesin UNC-104/KIF1A” (PLoS Genetics, 2021).
Numbering of substitutions follows the chain as printed.

Key:
KIF13B MD-NC-CC1 [1] = target: T1, KIF13B MD-NC-CC1 (Rattus norvegicus, UniProt A0A0G2K8Z9, , form not given); test: microtubule-stimulated ATPase, malachite green phosphate endpoint assay; assay type: biochemical; conditions: microtubules present
T1 construct: MD-NC-CC1 fragment (motor domain, neck coil, CC1)
T1 sequence (A0A0G2K8Z9 48-490 T239Y limits assumed): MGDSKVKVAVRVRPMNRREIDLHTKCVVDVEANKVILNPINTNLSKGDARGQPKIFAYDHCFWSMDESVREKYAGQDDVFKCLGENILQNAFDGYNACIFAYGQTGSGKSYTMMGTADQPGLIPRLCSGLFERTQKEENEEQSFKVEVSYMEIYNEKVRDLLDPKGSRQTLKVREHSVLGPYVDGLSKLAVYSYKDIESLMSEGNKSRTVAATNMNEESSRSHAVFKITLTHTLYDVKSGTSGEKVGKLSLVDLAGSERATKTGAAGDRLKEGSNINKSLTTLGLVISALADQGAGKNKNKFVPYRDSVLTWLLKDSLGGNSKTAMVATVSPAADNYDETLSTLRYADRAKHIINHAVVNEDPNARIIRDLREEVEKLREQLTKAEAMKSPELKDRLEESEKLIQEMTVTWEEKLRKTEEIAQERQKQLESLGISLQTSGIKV

[2] = target: T2, UNC-104 (MD-NC-CC1, residue 1-446) (Caenorhabditis elegans, UniProt P23678); test: microtubule-stimulated ATPase assay; assay type: biochemical; conditions: microtubules present
T2 construct: MD-NC-CC1 fragment, residues 1-446, bacterial expression
T2 sequence (P23678 1-446): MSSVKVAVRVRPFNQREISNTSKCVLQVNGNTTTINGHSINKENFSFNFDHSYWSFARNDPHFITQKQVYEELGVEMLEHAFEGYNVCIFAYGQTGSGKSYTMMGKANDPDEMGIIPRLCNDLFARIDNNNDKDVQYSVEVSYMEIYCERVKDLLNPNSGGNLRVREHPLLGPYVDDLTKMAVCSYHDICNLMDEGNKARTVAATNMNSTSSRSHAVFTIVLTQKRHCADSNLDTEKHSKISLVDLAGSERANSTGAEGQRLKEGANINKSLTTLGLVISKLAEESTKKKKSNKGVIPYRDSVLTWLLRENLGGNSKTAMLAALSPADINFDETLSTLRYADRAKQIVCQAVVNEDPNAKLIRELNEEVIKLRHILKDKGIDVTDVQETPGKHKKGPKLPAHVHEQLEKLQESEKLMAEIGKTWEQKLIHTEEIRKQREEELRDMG

[3] = target: T3, UNC-104 (MD-NC-CC1, residue 1-446) (Caenorhabditis elegans, UniProt P23678, C184Y); test: microtubule-stimulated ATPase assay; assay type: biochemical; conditions: microtubules present
T3 construct: MD-NC-CC1 fragment, residues 1-446, bacterial expression
T3 sequence (P23678 1-446 C184Y): T2 sequence (P23678 1-446) with C184Y

KIF13B MD-NC-CC1 [4] = target: T4, KIF13B MD-NC-CC1 (Rattus norvegicus, UniProt A0A0G2K8Z9); test: microtubule-stimulated ATPase, malachite green phosphate endpoint assay; assay type: biochemical; conditions: microtubules present; autoinhibited wild type
T4 construct: MD-NC-CC1 fragment (motor domain, neck coil, CC1)
T4 sequence (A0A0G2K8Z9 48-490 limits assumed): T1 sequence (A0A0G2K8Z9 48-490 T239Y limits assumed) with Y192T

[5] = target: KIF13B T192Y-MD-NC-CC1 mutant (rat); test: crystal structure; crystals of the KIF13B T192Y-MD-NC-CC1 mutant (~25 mg/ml), 0.1 M Bis-Tris propane pH 8.2, 30% PEG 20000, sitting drop, 16°C; one molecule in the asymmetric unit, dimer formed by a crystallographic two-fold symmetry axis

Compound | microtubule-stimulated ATPase, malachite green phosphate endpoint assay (KIF13B MD-NC-CC1 [1]) | microtubule-stimulated ATPase assay [2] | microtubule-stimulated ATPase assay [3] | microtubule-stimulated ATPase, malachite green phosphate endpoint assay (KIF13B MD-NC-CC1 [4]) | stoichiometry N [5]
Nc1ncnc2c1ncn2[C@@H]1O[C@H](COP(=O)(O)OP(=O)(O)OP(=O)(O)O)[C@@H](O)[C@H]1O [ATP] | both the T192Y and L397F mutations significantly restored the ATPase activity of the MD-NC-CC1 fragment | the MD-NC-CC1 fragment of UNC-104 shows the moderate MT-stimulated ATPase activity | the C184Y mutant undergo a significant enhancement in its ATPase activity | Microtubule-stimulated ATPase activity of the KIF13B MD-NC-CC1 fragment | –
KIF13B T192Y-MD-NC-CC1 mutant (domain or fragment) | – | – | – | – | 2
